Consider five compounds from ChEMBL document CHEMBL1201862, “PubChem BioAssay data set” (2004).

The nature of experiment [1]: viability of uninfected HEp-2 cells – cell-based, HTS, cytotoxicity control for RSV inhibitor project, dose response (AID 2410). Format: functional. To be noted: human respiratory syncytial virus.
For experiment [2], the system named is Streptococcus sp. 'group A'. As to the kind of experiment: Streptococcus pyogenes SK(-)GAS viability under kanamycin – luminescence, BacTiterGlo, confirmation, counter-screen for streptokinase expression inhibitor project, dose response (AID 1900). Format: functional, organism-based. In general terms: A counterscreen serves to expose hits that act by an unwanted route or on another target.

The target in the next experiment is T1, Streptokinase A (Streptococcus pyogenes serotype M1, UniProt P10520).
T1 sequence (P10520 whole entry): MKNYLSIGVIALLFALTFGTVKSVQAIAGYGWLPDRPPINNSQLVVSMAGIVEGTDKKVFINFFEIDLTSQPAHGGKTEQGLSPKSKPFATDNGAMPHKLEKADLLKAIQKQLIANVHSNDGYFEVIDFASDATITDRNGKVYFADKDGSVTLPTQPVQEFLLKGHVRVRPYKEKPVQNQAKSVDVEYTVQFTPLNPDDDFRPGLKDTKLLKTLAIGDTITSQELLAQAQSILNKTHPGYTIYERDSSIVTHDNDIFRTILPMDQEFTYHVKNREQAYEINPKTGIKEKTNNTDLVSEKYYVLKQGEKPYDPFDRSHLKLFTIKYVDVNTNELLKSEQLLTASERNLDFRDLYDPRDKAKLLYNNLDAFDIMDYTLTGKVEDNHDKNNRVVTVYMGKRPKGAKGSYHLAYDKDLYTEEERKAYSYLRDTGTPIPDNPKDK
As to the kind of experiment: viability-normalized secreted streptokinase activity reduction – plasminogen activation absorbance, OD405, dose response (AID 1914).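 Also: secreted streptokinase activity via plasminogen activation per viability signal from cell pellet.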 Format: functional, Streptococcus pyogenes M1 GAS.

The test system of another experiment is Streptococcus. As to the kind of experiment: GAS UMAA2166 growth inhibition – luminescence, BacTiterGlo, counter-screen for streptokinase expression inhibitor project, dose response (AID 1915).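 Also: potency for reduction of bacterial viability or growth.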 Format: functional, organism-based.
Experiment [3] has as its target FAD-linked sulfhydryl oxidase ALR (Homo sapiens, UniProt P55789). Description: ALR-catalysed DTT oxidation blockers – biochemical, H2O2 detection, luminescence, cherry-pick, dose response (AID 493248).
The target in another experiment is T2, Cysteine protease ATG4B (Homo sapiens, UniProt Q9Y4P1).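 Also: Fluorescence-based dose-response confirmation assay measuring inhibition of ATG4B activity.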
T2 sequence (Q9Y4P1 whole entry): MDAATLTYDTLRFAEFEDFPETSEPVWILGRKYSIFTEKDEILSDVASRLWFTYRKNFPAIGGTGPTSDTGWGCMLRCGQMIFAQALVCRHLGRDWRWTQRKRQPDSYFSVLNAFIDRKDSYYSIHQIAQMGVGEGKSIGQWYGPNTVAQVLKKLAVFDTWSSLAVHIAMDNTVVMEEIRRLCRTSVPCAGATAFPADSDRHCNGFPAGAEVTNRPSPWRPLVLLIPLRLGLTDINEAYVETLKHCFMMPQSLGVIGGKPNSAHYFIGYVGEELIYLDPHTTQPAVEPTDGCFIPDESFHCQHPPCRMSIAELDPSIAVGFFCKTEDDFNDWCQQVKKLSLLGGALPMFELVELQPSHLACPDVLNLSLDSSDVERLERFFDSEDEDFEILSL
Format: functional.

The target in a further experiment is Phospholipase A2 (Homo sapiens, UniProt P04054). Format: functional.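 Also: confirmatory dose-response counterscreen on phospholipase A2, testing hits that came from an ultra-high-throughput screen for ATG4B inhibitors.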
Phospholipase A2, sequence (P04054 whole entry): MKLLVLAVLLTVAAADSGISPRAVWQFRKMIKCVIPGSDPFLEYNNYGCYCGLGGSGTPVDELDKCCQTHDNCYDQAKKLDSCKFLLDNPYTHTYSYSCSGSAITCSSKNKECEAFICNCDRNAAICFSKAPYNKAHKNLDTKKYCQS
The target of another experiment is Genome polyprotein (dengue virus type 2, UniProt P29990). As to the kind of experiment: flavivirus cap methylation enzyme inhibition – biochemical, confirmation dose response, primary screen (AID 588689). Format: functional.
Genome polyprotein, sequence (P29990 2492-3391 limits assumed): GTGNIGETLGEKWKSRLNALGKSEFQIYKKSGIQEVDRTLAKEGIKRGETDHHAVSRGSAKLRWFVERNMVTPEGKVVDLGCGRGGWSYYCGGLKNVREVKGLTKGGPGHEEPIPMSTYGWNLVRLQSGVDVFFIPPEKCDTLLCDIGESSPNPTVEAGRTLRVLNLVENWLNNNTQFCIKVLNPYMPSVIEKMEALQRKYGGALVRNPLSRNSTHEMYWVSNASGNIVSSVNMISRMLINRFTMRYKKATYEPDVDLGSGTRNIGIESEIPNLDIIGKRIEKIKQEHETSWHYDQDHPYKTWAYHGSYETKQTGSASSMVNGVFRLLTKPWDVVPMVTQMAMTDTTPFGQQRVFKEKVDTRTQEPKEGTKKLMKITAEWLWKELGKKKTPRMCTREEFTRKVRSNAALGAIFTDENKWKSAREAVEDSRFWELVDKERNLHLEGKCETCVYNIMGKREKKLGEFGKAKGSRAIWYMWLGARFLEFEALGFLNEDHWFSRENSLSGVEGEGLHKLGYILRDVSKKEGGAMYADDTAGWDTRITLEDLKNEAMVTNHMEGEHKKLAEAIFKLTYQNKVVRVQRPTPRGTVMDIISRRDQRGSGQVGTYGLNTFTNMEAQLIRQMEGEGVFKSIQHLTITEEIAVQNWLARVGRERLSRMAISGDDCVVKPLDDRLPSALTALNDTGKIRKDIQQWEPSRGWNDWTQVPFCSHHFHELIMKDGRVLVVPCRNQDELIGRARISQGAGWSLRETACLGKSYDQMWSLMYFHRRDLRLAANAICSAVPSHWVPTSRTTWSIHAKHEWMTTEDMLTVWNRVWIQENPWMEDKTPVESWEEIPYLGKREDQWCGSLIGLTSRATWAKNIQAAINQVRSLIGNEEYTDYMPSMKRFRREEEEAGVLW
Experiment [4] has as its target DNA (cytosine-5)-methyltransferase 1 (Homo sapiens, UniProt P26358). As to the kind of experiment: inhibition of DNA methylation by DNMT1 – biochemical, fluorescent molecular beacon, confirmation (AID 602386). Format: functional.
The next experiment addresses T3, Hexokinase-1 (Homo sapiens, UniProt P19367).
T3 sequence (P19367 whole entry): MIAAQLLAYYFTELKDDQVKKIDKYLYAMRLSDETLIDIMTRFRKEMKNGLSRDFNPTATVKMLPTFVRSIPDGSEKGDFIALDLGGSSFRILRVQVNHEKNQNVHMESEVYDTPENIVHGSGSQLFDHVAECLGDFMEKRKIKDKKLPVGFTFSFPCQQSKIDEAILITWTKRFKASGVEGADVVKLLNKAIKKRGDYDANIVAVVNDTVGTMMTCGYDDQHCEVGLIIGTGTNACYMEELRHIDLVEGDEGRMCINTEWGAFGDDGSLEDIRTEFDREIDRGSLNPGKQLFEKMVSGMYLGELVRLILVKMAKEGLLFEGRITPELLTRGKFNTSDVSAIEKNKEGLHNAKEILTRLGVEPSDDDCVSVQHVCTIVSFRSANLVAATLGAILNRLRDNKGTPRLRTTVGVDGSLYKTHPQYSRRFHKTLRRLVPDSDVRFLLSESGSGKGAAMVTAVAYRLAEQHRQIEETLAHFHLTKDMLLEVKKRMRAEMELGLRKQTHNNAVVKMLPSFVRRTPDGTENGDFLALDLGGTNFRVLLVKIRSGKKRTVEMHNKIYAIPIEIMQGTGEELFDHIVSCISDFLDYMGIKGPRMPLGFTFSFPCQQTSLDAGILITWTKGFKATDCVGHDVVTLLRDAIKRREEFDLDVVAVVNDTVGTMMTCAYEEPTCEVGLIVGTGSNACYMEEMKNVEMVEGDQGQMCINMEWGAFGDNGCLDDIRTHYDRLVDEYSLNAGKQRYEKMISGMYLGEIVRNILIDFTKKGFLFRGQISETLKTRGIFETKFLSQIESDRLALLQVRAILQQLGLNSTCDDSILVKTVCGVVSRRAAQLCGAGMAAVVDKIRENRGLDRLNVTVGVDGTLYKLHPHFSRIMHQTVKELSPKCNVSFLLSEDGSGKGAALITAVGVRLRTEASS
Description: SAR analysis of small molecule inhibitors of hexokinase domain containing I (HKDC1) in the hexokinase 1 selectivity assay. [Related pubchem assays (depositor defined):AID493160, AID493190]. Format: functional.

In another experiment the target is T4, Hexokinase HKDC1 (Homo sapiens, UniProt Q2TB90).
T4 sequence (Q2TB90 whole entry): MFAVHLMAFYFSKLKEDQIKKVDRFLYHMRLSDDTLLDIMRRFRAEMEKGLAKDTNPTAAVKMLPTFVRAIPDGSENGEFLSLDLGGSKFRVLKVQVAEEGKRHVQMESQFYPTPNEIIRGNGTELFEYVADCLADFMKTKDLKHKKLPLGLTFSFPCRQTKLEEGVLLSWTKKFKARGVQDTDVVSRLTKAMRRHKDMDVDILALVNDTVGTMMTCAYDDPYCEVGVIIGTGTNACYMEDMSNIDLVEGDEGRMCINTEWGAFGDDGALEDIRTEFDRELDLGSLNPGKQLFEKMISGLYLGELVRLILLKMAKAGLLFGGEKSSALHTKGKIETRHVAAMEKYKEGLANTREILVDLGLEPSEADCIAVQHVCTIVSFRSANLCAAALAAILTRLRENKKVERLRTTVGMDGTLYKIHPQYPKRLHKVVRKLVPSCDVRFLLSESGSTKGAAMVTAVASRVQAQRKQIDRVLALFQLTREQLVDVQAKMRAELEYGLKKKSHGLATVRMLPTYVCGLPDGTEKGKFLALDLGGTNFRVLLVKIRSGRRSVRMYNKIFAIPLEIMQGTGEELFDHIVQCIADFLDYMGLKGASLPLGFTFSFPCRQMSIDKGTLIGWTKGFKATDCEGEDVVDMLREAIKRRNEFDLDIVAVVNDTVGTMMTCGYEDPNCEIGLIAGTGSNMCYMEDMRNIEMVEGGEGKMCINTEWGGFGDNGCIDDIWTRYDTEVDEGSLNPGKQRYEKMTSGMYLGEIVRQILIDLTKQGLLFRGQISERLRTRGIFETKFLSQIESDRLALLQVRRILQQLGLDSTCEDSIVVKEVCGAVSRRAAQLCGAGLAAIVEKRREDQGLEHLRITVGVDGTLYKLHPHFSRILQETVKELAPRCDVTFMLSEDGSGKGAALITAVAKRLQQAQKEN
Description: SAR analysis of small molecule inhibitors of hexokinase domain containing I (HKDC1). [Related pubchem assays (depositor defined):AID493160, AID493190]. Format: functional.

Experiment [5] concerns the target T5, Corticotropin-releasing factor receptor 2/Corticotropin-releasing factor-binding protein (Homo sapiens, UniProt P24387+Q13324).
T5 sequence (Q13324 whole entry): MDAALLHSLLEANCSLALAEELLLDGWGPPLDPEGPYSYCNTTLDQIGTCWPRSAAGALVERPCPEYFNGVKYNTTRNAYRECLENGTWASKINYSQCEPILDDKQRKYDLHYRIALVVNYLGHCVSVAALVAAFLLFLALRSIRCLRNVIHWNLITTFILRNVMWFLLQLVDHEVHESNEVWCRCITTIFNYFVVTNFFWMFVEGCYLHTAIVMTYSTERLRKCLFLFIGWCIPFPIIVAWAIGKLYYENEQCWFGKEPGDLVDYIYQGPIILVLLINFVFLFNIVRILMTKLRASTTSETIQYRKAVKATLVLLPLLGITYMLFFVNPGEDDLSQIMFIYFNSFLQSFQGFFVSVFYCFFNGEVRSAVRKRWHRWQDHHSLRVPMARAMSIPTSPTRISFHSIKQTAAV
T5 sequence (P24387 whole entry): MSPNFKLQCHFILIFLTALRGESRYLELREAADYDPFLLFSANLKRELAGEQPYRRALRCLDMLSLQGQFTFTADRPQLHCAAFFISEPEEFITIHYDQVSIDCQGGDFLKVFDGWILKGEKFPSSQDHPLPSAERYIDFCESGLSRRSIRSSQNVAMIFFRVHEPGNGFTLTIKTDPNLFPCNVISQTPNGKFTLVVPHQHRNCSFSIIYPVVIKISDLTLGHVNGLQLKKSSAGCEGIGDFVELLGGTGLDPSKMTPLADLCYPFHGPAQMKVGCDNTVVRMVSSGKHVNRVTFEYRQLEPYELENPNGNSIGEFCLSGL
As to the kind of experiment: Dose Response confirmation of uHTS hits for small molecule antagonists of the CRF-binding protein and CRF-R2 receptor complex. Conditions: read-out: IC50_Mean. Format: functional.

Experiment [6] concerns the target T5, Corticotropin-releasing factor receptor 2/Corticotropin-releasing factor-binding protein. As to the kind of experiment: activators of CRF receptor 2 with binding protein – uHTS hits, confirmation (AID 602473). Format: functional. To be noted: read-out: EC50_Mean.

Usually CC50 stands for the concentration at which the toxic effect on the cells reaches its halfway point. In general, AC50 refers to the midpoint of the concentration-response curve, whichever way the signal moves.

Molecules are shown by their SMILES. Calls of active or inactive are those of the source.

DNA (cytosine-5)-methyltransferase 1, sequence (P26358 whole entry): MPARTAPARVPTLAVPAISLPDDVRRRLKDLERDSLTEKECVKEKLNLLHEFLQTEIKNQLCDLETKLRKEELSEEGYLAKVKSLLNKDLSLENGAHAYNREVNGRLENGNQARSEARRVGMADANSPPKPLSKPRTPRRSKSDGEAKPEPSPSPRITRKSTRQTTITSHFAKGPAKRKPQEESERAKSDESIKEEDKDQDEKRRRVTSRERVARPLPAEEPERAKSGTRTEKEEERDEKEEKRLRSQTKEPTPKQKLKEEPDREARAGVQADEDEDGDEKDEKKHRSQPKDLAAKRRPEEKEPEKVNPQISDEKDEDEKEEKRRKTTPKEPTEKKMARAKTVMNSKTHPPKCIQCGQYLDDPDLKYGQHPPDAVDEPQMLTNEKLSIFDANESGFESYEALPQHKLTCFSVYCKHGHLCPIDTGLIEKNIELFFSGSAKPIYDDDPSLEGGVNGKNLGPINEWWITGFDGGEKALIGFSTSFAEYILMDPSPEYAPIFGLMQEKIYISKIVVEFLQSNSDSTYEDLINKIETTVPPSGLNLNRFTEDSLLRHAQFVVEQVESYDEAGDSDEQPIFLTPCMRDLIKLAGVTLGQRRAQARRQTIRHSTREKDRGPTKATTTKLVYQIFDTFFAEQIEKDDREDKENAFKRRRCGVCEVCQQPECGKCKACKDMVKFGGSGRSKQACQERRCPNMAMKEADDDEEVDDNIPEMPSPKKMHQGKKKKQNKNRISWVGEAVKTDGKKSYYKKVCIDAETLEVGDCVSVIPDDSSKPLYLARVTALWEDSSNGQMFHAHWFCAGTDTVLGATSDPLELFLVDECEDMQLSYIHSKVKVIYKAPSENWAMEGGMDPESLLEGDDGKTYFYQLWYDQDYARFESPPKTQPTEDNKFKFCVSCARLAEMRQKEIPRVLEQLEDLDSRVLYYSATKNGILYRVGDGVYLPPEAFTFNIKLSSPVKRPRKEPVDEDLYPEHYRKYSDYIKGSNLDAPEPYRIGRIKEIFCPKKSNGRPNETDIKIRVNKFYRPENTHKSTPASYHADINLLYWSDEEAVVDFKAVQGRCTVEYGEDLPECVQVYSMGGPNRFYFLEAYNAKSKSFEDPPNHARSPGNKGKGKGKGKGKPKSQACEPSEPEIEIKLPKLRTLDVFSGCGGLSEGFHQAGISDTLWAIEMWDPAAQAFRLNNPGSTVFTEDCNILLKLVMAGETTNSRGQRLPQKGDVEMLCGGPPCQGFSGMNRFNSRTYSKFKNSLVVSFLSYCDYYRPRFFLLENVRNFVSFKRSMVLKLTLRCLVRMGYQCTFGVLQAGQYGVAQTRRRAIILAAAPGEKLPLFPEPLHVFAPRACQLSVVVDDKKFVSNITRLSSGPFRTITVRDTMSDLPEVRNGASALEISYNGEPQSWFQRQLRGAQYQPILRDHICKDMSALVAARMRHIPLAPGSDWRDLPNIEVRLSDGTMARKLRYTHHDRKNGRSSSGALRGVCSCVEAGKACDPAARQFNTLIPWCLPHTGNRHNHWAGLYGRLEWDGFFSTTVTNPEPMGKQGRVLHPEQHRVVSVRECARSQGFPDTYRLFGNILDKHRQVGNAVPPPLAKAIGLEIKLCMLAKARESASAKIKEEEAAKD
FAD-linked sulfhydryl oxidase ALR, sequence (P55789 whole entry): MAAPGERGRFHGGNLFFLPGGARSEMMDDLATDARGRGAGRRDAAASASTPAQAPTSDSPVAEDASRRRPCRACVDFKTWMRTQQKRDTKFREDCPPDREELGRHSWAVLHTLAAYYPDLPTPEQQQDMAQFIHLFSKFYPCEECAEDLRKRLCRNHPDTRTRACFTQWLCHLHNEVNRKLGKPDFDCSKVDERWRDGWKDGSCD

In the case of `O=C(O)CN1C(=O)/C(=C\c2cc(Br)ccc2OCc2ccc(Cl)cc2)SC1=S`, the CC50 in experiment [1] was 14.9 µM (active). The results for the EC50 (in experiment [2]; at Streptokinase A; with Streptococcus) were 1.58 µM (active), > 50 µM (not active) and 3.08 µM (active), respectively. The AC50 in experiment [3] is 1.58 µM (active). Moreover, the IC50 was 7.13 µM (active) on Cysteine protease ATG4B, 4.68 µM (active) at Phospholipase A2, 24.8 µM (active) on Genome polyprotein and 7.36 µM (active) in [4].
As to `O=c1c2ccccc2nc(/C=C/c2ccccc2)n1Cc1ccccc1`, the IC50 at Hexokinase-1 and on Hexokinase HKDC1 was > 80 µM (inactive) in each case.
For the compound `Cc1cc2nnc(SCC(=O)Nc3cccc(S(=O)(=O)N4CCCC4)c3)n2c2ccccc12`, the IC50 on Hexokinase-1 and at Hexokinase HKDC1 was > 80 µM (inactive) in each case.
For `COc1ccc(/C=C2\CCc3ccccc3C2=O)c(OC)c1OC`, the values for the IC50 (on Cysteine protease ATG4B; at Phospholipase A2; in experiment [5]) were 38.6 µM (inactive), 31.7 µM (inactive) and > 47.1 µM (inactive), respectively. For the same compound, the EC50 in [6] is > 53 µM (inactive).
With `O=c1c2ccccc2nc(/C=C/c2ccccn2)n1Cc1ccccc1`, the IC50 on Hexokinase-1 and at Hexokinase HKDC1 was > 80 µM (inactive) throughout.
